From patent US7084122B2, “Use of glycosides of mono- and diacyglycerol as anti-inflammatory agents” (priority 2001, dated 2006) come the findings set out here.

The structures appear in SMILES notation. Like-named read-outs stand apart in the source and are kept apart here.

Holding throughout (type): cell-based
Data set [1] concerns human peripheral blood polymorphonuclear leukocytes. Nature of the data set: Chemotaxis assay, modified Boyden chamber, towards zymosan activated serum (ZAS). The method, then:
(§1) Polymorphonuclear leukocytes (PMNS) were isolated from the peripheral blood of healthy individuals in citrated glass. The cells were separated by dextran density gradient and lymphoprep separation. The purity of PMNs was greater than 98% and the cell viability as determined by trypan blue dye exclusion was greater than 98%.
Chemotaxis assay was performed using a modified Boyden chamber technique as described in Jensen, P. and Kharazmi, A., Computer-assisted image analysis assay of human neutrophil chemotaxis in vitro. J. Immunol. Methods, 144, 43–48. 1991. The purified PMNs were pre-incubated with different dilutions of the extracted galactolipid for 30 min at 37° C. Following preincubation, the chemotaxis of the cells towards the chemotactic factor zymosan activated serum (ZAS), which contains the biologically active chemoattractant C5a, were tested. The migrated cells were counted by a computer-assisted image analysis system.

For data set [2] the test system is unchanged. Nature of the data set: Chemiluminescence assay (oxidative burst response), stimulated with opsonized zymosan. To be noted: for Chemiluminescence, Millivolts: DMSO control 664. The method, then:
as §1
Chemiluminescence assay was used as a measure of oxygen radical generation by activated PMNs. The method was performed as described in Kharazmi, A., Høiby, N., Doring, G., and Valerius, N. H. Pseudomonas aeruginosa exoproteases inhibit human neutrophil chemiluminescence. Infect. Immun. 44, 587, 1984. PMNs were pre-incubated with different concentrations of the extracted galactolipid and then stimulated with opsonized zymosan. The oxidative burst response of the activated cells was measured by a luminometer (1250-LKB Wallace).

Data set [3] has as its system polymorphonuclear leukocytes. The data set is described as follows: Cell viability by trypan blue dye exclusion. To be noted: for Percent viability: DMSO control 100. The method, then:
as §1
Table 6. […] Cell viability was determined by a trypan blue dye exclusion method. The cells were incubated with trypan blue. The dead cells will take up dye and appear blue under the microscope. The results are show as percent viable cells.

The term inhibition denotes the drop in the measured response relative to a control, in per cent. On to `CC/C=C\C/C=C\C/C=C\CCCCCCCC(=O)OCC(CO[C@@H]1O[C@H](CO)[C@H](O)[C@H](O)[C@H]1O)OC(=O)CCCCCCC/C=C\C/C=C\C/C=C\CC` (stereo partly drawn) [GOPO, 3-β-D-galactopyranosyloxy-2-(octadeca-9Z,12Z,15Z-trienoyloxy)propanyl octadeca-9Z,12Z,15Z-trienoate], for which the Cells migrated stood at 39 in data set [1] (GOPO 0.1 μg/ml, new batch (Table 4), DMSO control 42); 15 in data set [1] (GOPO 1 μg/ml, new batch (Table 4), DMSO control 42); 16 in data set [1] (GOPO 10 μg/ml, new batch (Table 4), DMSO control 42); 5 in data set [1] (GOPO 50 μg/ml, first batch (Table 3), DMSO control 59); 8 in data set [1] (GOPO 100 μg/ml, first batch (Table 3), DMSO control 59); 12 in data set [1] (GOPO 100 μg/ml, new batch (Table 4), DMSO control 42). In addition, the inhibition at 0.1 µg/mL in data set [1] (Homo sapiens, Leukocyte, GOPO 0.1 μg/ml, new batch (Table 4), read-out: Percent inhibition) stood at 7%. For the same molecule, the inhibition at 1 µg/mL in data set [1] (Homo sapiens, Leukocyte, GOPO 1 μg/ml, new batch (Table 4), read-out: Percent inhibition) turned out to be 64%. Moreover, in data set [1] (Homo sapiens, Leukocyte, GOPO 10 μg/ml, new batch (Table 4), read-out: Percent inhibition), the inhibition at 10 µg/mL came to 62%. In addition, the inhibition at 50 µg/mL in data set [1] (Homo sapiens, Leukocyte, GOPO 50 μg/ml, first batch (Table 3), read-out: Percent inhibition) is 92%. In addition, the inhibition at 100 µg/mL in data set [1] (Homo sapiens, Leukocyte, GOPO 100 μg/ml, first batch (Table 3), read-out: Percent inhibition) was determined as 86%; in data set [1] (Homo sapiens, Leukocyte, GOPO 100 μg/ml, new batch (Table 4), read-out: Percent inhibition), 71%. Also, in data set [1] (at fairly low concentrations), the “Migration of human peripheral blood leukocytes towards zymosan-activated serum (result in words)” value is given as “inhibited”. For the same molecule, the “Chemiluminescence, Millivolts” value in data set [2] (GOPO 50 μg/ml) came out at 520 Millivolts; in data set [2] (GOPO 100 μg/ml), 339 Millivolts. In data set [2] (at fairly low concentrations), the “Chemiluminescence of human peripheral blood leukocytes (result in words)” value was “inhibited”. The Percent viability is 100% in data set [3] (GOPO 50 μg/ml) and 99% in data set [3] (GOPO 100 μg/ml). In data set [3] (at the tested concentrations), the “Toxicity to the cells (result in words)” value is reported as “does not appear to be toxic”.
